From US20220233534A1, “CERDULATINIB-CONTAINING TOPICAL SKIN PHARMACEUTICAL COMPOSITIONS AND USES THEREOF” (DERMAVANT SCIENCES GMBH, priority 2019, published 2022)

Experiments:
[1] = tested on: DNCB-induced atopic dermatitis NC/Nga mouse; assay: DNCB-induced atopic dermatitis in the NC/Nga mouse model; type: in vivo
Procedure: Atopic dermatitis was induced by repeated application of DNCB (1-chloro-2,4-dinitrobenzene) to the dorsal skin of the ears/back. […] Lesions were evaluated on days 2, 8, 11, and 14.
Macroscopic lesion severity scores are depicted in FIG. 7. Macroscopic skin lesion severity was measured on the indicated Study Days by assessing (0-3 scale) the presence of erythema, edema, excoriation/erosion, and dryness scaling on the ears, neck, and dorsal skin of animals.
Serum IgE levels are depicted in FIG. 8. Serum samples obtained on Study Day 15 were utilized for IgE quantitation. Select cytokine data from the study are depicted in FIG. 9. Skin samples harvested on Day 15 were analyzed by LUMINEX for inflammatory cytokine levels for IL-4, IL-5, IL-13, and IL-31.

[2] = tested on: vitiligo mouse model; assay: Study DMVT-502-9025 mouse model of vitiligo; type: in vivo
Procedure: The model mimics human vitiligo by inducing epidermal depigmentation with autoreactive CD8+ T-cell accumulation. A schematic of the model is depicted in FIG. 15.
Ten mice were used in the study: three REX3 reporter mice for cytokines CXCL9 and CXCL10 and seven SCF (stem cell factor) mice. The vitiligo study timeline is depicted in FIG. 16. The following assessments were performed during the study:
Blinded scoring of ears, tail, nose, and ventral feet (0-5 scale)
Epidermal, dermal, spleen, and lymph node PMEL (premelanosome protein) cell count
Epidermal/dermal APC (antigen-presenting cell) count
Keratinocyte Cytokine Expression

[3] = 60 mg/kg once daily oral, 5 weeks
[4] = 30 and 60 mg/kg once daily oral, 5 weeks

## CCS(=O)(=O)N1CCN(c2ccc(Nc3ncc(C(N)=O)c(NC4CC4)n3)cc2)CC1 [DMVT-502, Cerdulatinib]
[1]; topical therapy, Study Day 15
  serum IgE levels: trends towards reduction
[1]; topical treatment, Day 15, LUMINEX
  pro-inflammatory cytokine levels in skin (IL-4, IL-5, IL-13, IL-31): limited suppression
[2]; [3]
  APCs in the dermal skin compartment and Langerhans cells in the epidermal skin compartment compared with vehicle: significantly reduced
  CD3+, CD8− T-cell counts in the spleen: significantly reduced
  PMEL T-cell counts in dermis and blood: significantly reduced
  host T-cell counts in blood: significantly decreased
[2]; [4]
  APC counts in lymph nodes and the spleen compared with vehicle: significantly reduced
  PMEL T-cell counts in the epidermis and dermis compared with vehicle: significantly reduced
  host-derived total T-cell counts in the spleen: significantly reduced
  vitiligo scores compared with vehicle controls: significantly decreased
[2]; 30 or 60 mg/kg once daily oral, 5 weeks
  lymph node or spleen PMEL T cells: no significant differences
[2]; SCF/REX3 mice
  CXCL9, CXCL10, and dual expression in keratinocytes compared with vehicle: trends towards reduced
[2]; once daily oral, 5 weeks
  CXCL9 and CXCL10 expression in lymph node APCs: Reduced
  total keratinocyte counts between treatment groups: No decrease
